Like-named read-outs stand apart in the source and are kept apart here.
Key:
[1] = target: T1, GST-CIB1 : F-scrambled peptide (Homo sapiens, UniProt Q99828); assay: FP scrambled-peptide counter screen, 1536-well format; assay type: binding; conditions: for IC50: read-out: IC50 [μM] (counterscreen); for Curve Class (counterscreen): qHTS curve class
T1 construct: made in house; host or cells: BL-21 plus RIL cells (E. coli)
T1 sequence (Q99828 1-191): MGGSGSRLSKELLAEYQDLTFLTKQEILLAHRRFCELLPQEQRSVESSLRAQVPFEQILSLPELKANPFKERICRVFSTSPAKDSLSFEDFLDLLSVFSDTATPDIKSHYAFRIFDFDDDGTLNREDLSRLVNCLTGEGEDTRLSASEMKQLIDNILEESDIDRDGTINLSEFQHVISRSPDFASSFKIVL

[2] = target: T2, CIB1 and αIIb interaction (CIB1-GST : F-αIIb peptide) (Homo sapiens, UniProt Q99828); assay: FP assay, 1536-well qHTS format (primary and confirmatory screen); assay type: binding; conditions: for Curve Class (confirmatory screen): qHTS curve class
T2 construct: made in house; host or cells: BL-21 plus RIL cells (E. coli)
T2 sequence (Q99828 1-191): T1 sequence (Q99828 1-191)

[3] = Table S3, counterscreen, negative = inhibition
[4] = Table S3, confirmatory screen, a negative sign marks inhibitory curves
[5] = Table S3, confirmatory screen, negative = inhibition
[6] = qHTS primary screen hits, Table S2, negative = inhibition
[7] = qHTS primary screen hits, Table S2, negative sign = inhibitory curve, several classes where COUNT > 1
[8] = qHTS primary screen hits, Table S2, read-out: IC50
[9] = Table S3, counterscreen, YES/NO call
[10] = counterscreen, negative sign = inhibitory curve
[11] = confirmatory screen, negative sign = inhibitory curve
[12] = confirmatory screen, read-out: IC50 [μM] (confirmatory screen)
[13] = qHTS FP screen hits, Table S2, negative = inhibition
[14] = qHTS FP screen hits, Table S2, one class per curve where COUNT > 1, negative sign = inhibitory curve
[15] = qHTS FP screen hits, Table S2, read-out: IC50
[16] = Table S3, counterscreen, a negative sign marks inhibitory curves
[17] = Table S3, confirmatory screen, YES/NO call
[18] = Table S3, confirmatory screen, read-out: IC50 [μM] (confirmatory screen)

NS(=O)(=O)c1ccc(Cc2cn(-c3nc(C(=O)O)cs3)nc2-c2ccc(F)c(F)c2)cc1.O=C(O)C(F)(F)F [NCGC00356753-01]
Efficacy (%) (counterscreen) [1, 3]: 54% | IC50 ([1]; Table S3, counterscreen): 56.2 µM | Curve Class (confirmatory screen) [2, 4]: 4 | Efficacy (%) (confirmatory screen) [2, 5]: -27% | Efficacy (%) [2, 6]: -29% | Curve Class [2, 7]: -2.4 | IC50 [2, 8]: 31.6 µM

CC(C)Oc1cccc(NC(=O)c2ccccc2C(F)(F)F)c1 [NCGC00160537-04]
Confirm? (counterscreen) [1, 9]: YES | Efficacy (%) (counterscreen) [1, 3]: -39% | IC50 ([1]; Table S3, counterscreen): 39.8 µM | IC50 [2, 8]: 100 µM

COP(=S)(OC)SCN1C(=O)c2ccccc2C1=O [NCGC00080392-05]
Efficacy (%) (counterscreen) ([1]; counterscreen): -33% | Curve Class (counterscreen) [1, 10]: -2.4 | IC50 ([1]; counterscreen): 44.7 µM | Efficacy (%) (confirmatory screen) ([2]; confirmatory screen): -50% | Confirm? (confirmatory screen) ([2]; confirmatory screen, YES/NO): YES | Curve Class (confirmatory screen) [2, 11]: -2.2 | IC50 [2, 12]: 50.1 µM | Efficacy (%) [2, 13]: -50% | Curve Class [2, 14]: -1.2 | IC50 [2, 15]: 17.8 µM

Cc1c2c(=O)n(-c3ccccc3)[nH]c2cc(=O)n1-c1cccnc1.O=C(O)C(F)(F)F [NCGC00248472-01]
Confirm? (counterscreen) [1, 9]: YES | Curve Class (counterscreen) [1, 16]: -2.2 | Efficacy (%) (counterscreen) [1, 3]: -60% | IC50 ([1]; Table S3, counterscreen): 39.8 µM | Curve Class (confirmatory screen) [2, 4]: 4 | Efficacy (%) (confirmatory screen) [2, 5]: -23% | Efficacy (%) [2, 13]: -31% | IC50 [2, 15]: 39.8 µM

COc1ccc2nc3[nH]nc(C)c3c(NCCOCCO)c2c1 [NCGC00384193-04]
Curve Class (counterscreen) [1, 16]: -2.2 | Efficacy (%) (counterscreen) [1, 3]: -75% | IC50 ([1]; Table S3, counterscreen): 89.1 µM | Confirm? (confirmatory screen) [2, 17]: YES | Curve Class (confirmatory screen) [2, 4]: -2.2 | Efficacy (%) (confirmatory screen) [2, 5]: -47% | Efficacy (%) [2, 13]: -75% | Curve Class [2, 14]: -2.2 | IC50 [2, 15]: 50.1 µM

O=C(O)C(F)(F)F.O=C1CCCC2=C1C(c1n[nH]cc1Cl)NC(Nc1nc3ccccc3o1)=N2 (centres unmarked) [NCGC00238624-04]
Curve Class (counterscreen) [1, 16]: -1.2 | Efficacy (%) (counterscreen) [1, 3]: -54% | IC50 ([1]; Table S3, counterscreen): 35.5 µM | Confirm? (confirmatory screen) [2, 17]: YES | Curve Class (confirmatory screen) [2, 4]: -1.2 | Efficacy (%) (confirmatory screen) [2, 5]: -34% | IC50 [2, 18]: 25.1 µM

O=C(O)C(F)(F)F.O=S(=O)(Nc1nc2ccccc2s1)c1ccc(NCc2ccc(Br)cc2O)cc1 [NCGC00319026-01]
Efficacy (%) (counterscreen) ([1]; counterscreen): -15% | Confirm? (counterscreen) ([1]; counterscreen, YES/NO): YES | Curve Class (counterscreen) [1, 10]: 4 | Efficacy (%) (confirmatory screen) ([2]; confirmatory screen): -45% | Confirm? (confirmatory screen) ([2]; confirmatory screen, YES/NO): YES | Curve Class (confirmatory screen) [2, 11]: -2.4 | Efficacy (%) [2, 13]: -50% | Curve Class [2, 14]: -2.2 | IC50 [2, 15]: 39.8 µM

CCOC(=O)c1cc(-c2ccco2)nc2c1c(C)nn2CCC#N.O=C(O)C(F)(F)F [NCGC00037529-03]
Efficacy (%) (counterscreen) ([1]; counterscreen): -56% | Curve Class (counterscreen) [1, 10]: -2.4 | IC50 ([1]; counterscreen): 56.2 µM | Efficacy (%) (confirmatory screen) ([2]; confirmatory screen): -61% | Confirm? (confirmatory screen) ([2]; confirmatory screen, YES/NO): YES | Curve Class (confirmatory screen) [2, 11]: -2.2 | IC50 [2, 12]: 50.1 µM | Efficacy (%) [2, 13]: -27% | IC50 [2, 15]: 39.8 µM

CCN1C(=O)c2ccccc2[S+]([O-])c2ccc(C(=O)NCc3cccc(F)c3)cc21 (centres unmarked) [NCGC00241657-01]
Efficacy (%) (counterscreen) ([1]; counterscreen): -26% | Confirm? (counterscreen) ([1]; counterscreen, YES/NO): YES | Curve Class (counterscreen) [1, 10]: -1.4 | IC50 ([1]; counterscreen): 35.5 µM | Efficacy (%) (confirmatory screen) ([2]; confirmatory screen): -68% | Confirm? (confirmatory screen) ([2]; confirmatory screen, YES/NO): YES | Curve Class (confirmatory screen) [2, 11]: -2.2 | IC50 [2, 12]: 50.1 µM | Efficacy (%) [2, 6]: -70% | Curve Class ([2]; qHTS primary screen hits, Table S2, negative sign = inhibitory curve): -2.2 | IC50 [2, 8]: 39.8 µM

C[C@H](Cc1ccc(O)c(O)c1)[C@@H](C)Cc1ccc(O)c(O)c1 [NCGC00094201-01]
Efficacy (%) (counterscreen) ([1]; counterscreen): -68% | Curve Class (counterscreen) [1, 10]: -1.2 | IC50 ([1]; counterscreen): 12.6 µM | Efficacy (%) (confirmatory screen) ([2]; confirmatory screen): -95% | Confirm? (confirmatory screen) ([2]; confirmatory screen, YES/NO): YES | Curve Class (confirmatory screen) [2, 11]: -2.2 | IC50 [2, 12]: 39.8 µM | Efficacy (%) [2, 6]: -32% | Curve Class [2, 7]: -2.4 | IC50 [2, 8]: 27.1 µM

CCN(CC)CCN(Cc1ccc(-c2ccc(C(F)(F)F)cc2)cc1)C(=O)Cn1c(SCc2ccc(F)cc2)nc(=O)c2c1CCC2 [NCGC00386337-05]
Efficacy (%) (counterscreen) ([1]; counterscreen): -46% | Curve Class (counterscreen) [1, 10]: -2.2 | IC50 ([1]; counterscreen): 31.6 µM | Efficacy (%) (confirmatory screen) ([2]; confirmatory screen): -65% | Confirm? (confirmatory screen) ([2]; confirmatory screen, YES/NO): YES | Curve Class (confirmatory screen) [2, 11]: -1.2 | IC50 [2, 12]: 35.5 µM | Efficacy (%) [2, 13]: -54% | Curve Class [2, 14]: -2.2 | IC50 [2, 15]: 56.2 µM

CO[C@H](C(=O)[C@@H](O)[C@@H](C)O)[C@@H]1Cc2cc3cc(C[C@H]4C[C@H](O[C@H]5C[C@@H](O)[C@H](O)[C@@H](C)O5)[C@@H](O)[C@@H](C)O4)c(C)c(O)c3c(O)c2C(=O)[C@H]1O[C@@H]1C[C@H](O[C@@H]2C[C@H](O[C@@H]3C[C@](O)(CO)[C@@H](O)[C@H](C)O3)[C@@H](O)[C@H](C)O2)[C@@H](O)[C@H](C)O1 [NCGC00162423-04]
Curve Class (counterscreen) [1, 16]: -1.1 | Efficacy (%) (counterscreen) [1, 3]: -181% | IC50 ([1]; Table S3, counterscreen): 15.8 µM | Confirm? (confirmatory screen) [2, 17]: YES | Curve Class (confirmatory screen) [2, 4]: -2.1 | Efficacy (%) (confirmatory screen) [2, 5]: -183% | IC50 [2, 18]: 31.6 µM | Efficacy (%) [2, 6]: -51% | Curve Class [2, 7]: -2.2 | IC50 [2, 8]: 24.1 µM

FC(F)(F)c1cccc(N2CCN(C(=S)Nc3nccc4cccnc34)CC2)c1.O=C(O)C(F)(F)F [NCGC00244201-01]
Efficacy (%) (counterscreen) ([1]; counterscreen): -43% | Curve Class (counterscreen) [1, 10]: -1.2 | IC50 ([1]; counterscreen): 22.4 µM | Efficacy (%) (confirmatory screen) ([2]; confirmatory screen): -88% | Confirm? (confirmatory screen) ([2]; confirmatory screen, YES/NO): YES | Curve Class (confirmatory screen) [2, 11]: -2.2 | Efficacy (%) [2, 13]: -55% | Curve Class [2, 14]: -1.2 | IC50 [2, 15]: 28.2 µM

— publication PMC11249646, “Small-Molecule Disruptors of the Interaction between Calcium- and Integrin-Binding Protein 1 and Integrin αIIbβ3 as Novel Antiplatelet Agents” (ACS Pharmacology & Translational Science, 2024)
